The values below come from patent US8778966B2, “Quinolinone derivatives as PARP and tank inhibitors” (Janssen Pharmaceutica, NV, priority 2007, dated 2014).

Format in all cases: cell-based, human
The subject of assay [1] is HCT116 cells. Put plainly: Mitotic arrest assay on HCT116 cells (phospho-histone H3 Ser10). To be noted: Homo sapiens, HCT-116, HCT116 cells; lowest active dose; read-out: Mitotic arrest HCT116 LAD (converted). The source says: Phosphorylation of histone H3 is tightly correlated with chromosome condensation during both mitosis and meiosis. The assay is a cellular immunosorbent assay wherein the sole antibody is labelled with a detectable conjugate. The phospho-histone H3 (ser10) antibody detects endogenous levels of histone H3 only when phosphorylated at serine 10. […] In parallel with antibody detection, the nuclei of the cells are stained with Hoechst 33342 for cell-counting. Cells are detected and analysed using the InCell Analyzer 1000 from GE Healthcare. Since both the antibody-detection as well as the Hoechst-staining are in the nucleus, the dual area object intensity algorithm is used for analysing the wells.
All compounds tested were dissolved in DMSO and further dilutions were made in culture medium. Final DMSO concentrations never exceeded 0.1% (v/v).
HCT116 cells (supplier: ATCC) (human colon carcinoma cell line) were cultivated in Mc Coy's 5 A medium (supplier: Gibco) supplemented with 10% foetal calf serum (FCS), 2 mM L-glutamine and gentamycin at 37° C. in a humidified incubator with 5% CO2.
HCT116 cells were seeded at 20.000 cells per well in a 96 well plate (black/clear bottom, poly-D-lysine coated, supplier Greiner), cultured overnight to adhere to the bottom of the plate and treated with compound for 6 hours at 37° C. in a humidified incubator. After incubation, the medium was removed and cells were fixed using 100 μl/well formaldehyde (Accustain®, Formaline solution 10% neutral buffered, contains 4% formaldehyde w/v, supplier: Sigma) was added. After incubation for 15 minutes at room temperature, the formaldehyde was removed and cells were incubated with methanol (−20° C.) for 15 minutes at room temperature. After incubation, cells were washed once with phosphate-buffered saline (PBS —CaCl2, —MgCl2, suppier: Gibco)/0.05% Tween 20. The anti-phospho-histone H3 (Ser10) Alexa Fluor 488 antibody (supplier: Cell signalling) is used for detection of the cells inmitosis. The antibody was diluted 1/50 in 5% bovine serum albumins (BSA) and 50 μl/well was used for incubation overnight at room temperature in the dark.
A 1/2000 dilution of Hoechtst 33342 (10 mg/ml, supplier: Invitrogen) was made and 100 μl/well was added for at least 30 minutes before acquiring images. The absorbance at dual wavelengths of 360/480 nm was measured using the InCell Analyzer 1000 from GE Healthcare and the results were then analyzed.
For each experiment, controls (containing no drug) and a blank incubation (containing no cells or drugs) were run in parallel. Analysis was done in triplicate. Low cell count wells were invalidated. The blank value was subtracted from all control and sample values and divided by the standard deviation of the measurements. The compounds were considered active when the obtained value (sigma) was >5. Herein the effects of test compounds are expressed as the lowest dose giving a sigma value of >5 (LAD) (see table F-2).

Assay [2] deals with HCT116 cells. Description: Antiproliferative activity, Alamar Blue assay, HCT116 cells. To be noted: Homo sapiens, HCT-116, HCT116 cells; read-out: HCT116 antiproliferative activity pIC50 (converted). How it is done:
Human colon carcinoma HCT116 cells obtained from the ATCC were cultured in McCoy's 5 A medium supplemented with 2 mM L-Glutamine, 50 μg/ml gentamicin and 10% heat inactivated fetal calf serum.
(§1) Resazurin was purchased from Aldrich (Prod. No. 199303). Potassium ferrocyanide, potassium ferricyanide, KH2PO4 and K2HPO4 were purchased from Sigma (Prod. Nos. P9387, P8131, P5655 and P8281, respectively).
(§2) Potassium Phosphate Buffer 0.1 M (PPB) was made as follows: 2.72 gram KH2PO4 and 13.86 gram K2HPO4 were dissolved in 500 ml milli-Q H2O, the pH was adjusted to pH 7.4 and the volume was brought to 1 litre with milli-Q H2O; the buffer was filter sterilised and stored at room temperature. Resazurin stock solution (PPB-A) was prepared fresh by dissolving 45 mg resazurin in 15 ml PBS. 30 mM potassium ferricyanide (PPB-B) was prepared by dissolving 0.987 gram potassium ferricyanide in 100 ml PPB. 30 mM potassium ferrocyanide (PPB-C) was prepared by dissolving 1.266 gram potassium ferrocyanide in 100 ml PPB.
(§3) Mixture of PPB-A, PPB-B and PPB-C was prepared by mixing equal volumes of the respective solutions. Resazurin work solution (herein termed “Alamar Blue” solution) was prepared by diluting said mixture 20×(vol/vol) in PPB and filter sterilising; the Alamar Blue solution could be kept at 4° C. for a maximum of 2 weeks.
(§4) For experiments in 384 wells plates the cells were seeded at a density of 4.5×10^3 cells/ml in Falcon 384-well culture plates (Life Technologies, Merelbeke, Belgium), black with clear bottom, in 45 μl culture medium. Cells were allowed to adhere to plastic for 24 hr. The tested compound was pre-diluted (1/50 in culture medium) and 5 μl pre-diluted compound was added to the wells. Following 4-day incubation, 10 μl of the Alamar Blue solution was added to each well and the cells were further incubated for 4 hrs (HCT116) or 24 hrs (PC-3) at 37° C. The fluorescence intensity was measured for each well on a Fluorescence plate reader (Fluorskan, Labsystems, 540 nm excitation and 590 nm emission)
(§5) The antiproliferative activity was calculated as percentage of remaining viable cells in treated versus control (untreated cells) conditions. Within an experiment, the result for each experimental condition is the mean of 3 replicate wells. When appropriate, the experiments were repeated to establish full concentration-response curves. When appropriate, IC50-values (concentration of the drug, needed to reduce cell growth to 50% of the control) were computed using probit analysis for graded data (Finney, D. J., Probit Analyses, 2nd Ed. Chapter 10, Graded Responses, Cambridge University Press, Cambridge 1962). Herein the effects of test compounds are expressed as pIC50 (the negative log value of the IC50-value) (see Table 2).
In general terms: Alamar Blue is a resazurin reagent that responds to reducing activity.

For a further assay, the system named is PC-3 cells. Description: Antiproliferative activity, Alamar Blue assay, PC-3 cells. To be noted: Homo sapiens, PC-3, PC3 cells; read-out: PC3 antiproliferative activity pIC50 (converted). How it is done: Human prostate cancer PC-3 cells obtained from the ATCC were cultured in HAM′S F12 medium supplemented with 1 mM Sodium Pyruvate, 1.5 g/L Sodium Bicarbonate, 50 μg/ml gentamicin, non-essential amino acids and 10% fetal calf serum.
as §1, §2, §3, §4, §5

As for `CCc1cc2ccc(C(C)(C#N)Cc3cccc(-c4nc(C)no4)c3)cc2[nH]c1=O` (centres unmarked) [Compound 11], in the assay on HCT116 cells [1], the minimal effective concentration is 0.316 µM. Further, the IC50 in the assay on HCT116 cells [2] and in the assay with PC-3 cells was 1580 nM throughout.
`CCc1cc2ccc([C@@](C)(C#N)CCOc3ccccc3)cc2[nH]c1=O` (single isomer, unassigned) [Compound 150]: the minimal effective concentration in the assay on HCT116 cells [1] was 0.316 µM. The results for the IC50 in the assay on HCT116 cells [2] and with PC-3 cells were 794 nM and 1580 nM, respectively.
For `CCc1cc2ccc(C(C)(C#N)Cc3ccc(C(F)(F)F)cc3)cc2[nH]c1=O` (centres unmarked) [Compound 108] the same measures were 3.16 µM, 6310 nM and more than 10000 nM.
For `CCc1cc2ccc(C(C)(C#N)CCOc3cccc(C)c3)cc2[nH]c1=O` (centres unmarked) [Compound 143] the same measures were 0.316 µM, 501 nM and 794 nM.
For `CCc1cc2ccc(C(C)(C#N)CCOc3ccc(Br)cc3)cc2[nH]c1=O` (centres unmarked) [Compound 160] the same measures were 0.316 µM, 2000 nM and 1260 nM.
`CCc1cc2ccc(C(C)(C#N)CCOc3ccc4ccccc4c3)cc2[nH]c1=O` (centres unmarked) [Compound 157]: in the assay with HCT116 cells [1], the minimal effective concentration is 0.316 µM. Besides, the results for the IC50 in the assay on HCT116 cells [2] and in the assay with PC-3 cells were 1580 nM and 1000 nM, respectively.
On the same counts, the results for `CCc1cc2ccc(C(C#N)(CCOc3ccccc3)C3CC3)cc2[nH]c1=O` (centres unmarked) [Compound 166] are 1 µM, 10000 nM and 7940 nM.
As for `CCc1cc2ccc(C(C)(C#N)CCOc3cccc4ccccc34)cc2[nH]c1=O` (centres unmarked) [Compound 158], the minimal effective concentration with HCT116 cells [1] was 0.1 µM. Also, the IC50 with HCT116 cells [2] was 1260 nM; in the assay with PC-3 cells, 794 nM.
As to `C#Cc1cccc(CC(C)(C#N)c2ccc3cc(CC)c(=O)[nH]c3c2)c1` (racemic) [Compound 168], the minimal effective concentration in the assay on HCT116 cells [1] was 0.0316 µM. The IC50 in the assay on HCT116 cells [2] is 31.6 nM; with PC-3 cells, 158 nM.
On the same counts, the results for `CCc1cc2ccc(C(C)(C#N)Cc3ccc(C#N)cc3)cc2[nH]c1=O` (centres unmarked) [Compound 111] are 3.16 µM, 5010 nM and more than 10000 nM.
For the molecule `CCc1cc2ccc(C(C)(C#N)Cc3cc(F)cc(C(F)(F)F)c3)cc2[nH]c1=O` (centres unmarked) [Compound 127], in the assay with HCT116 cells [1], the minimal effective concentration was 0.316 µM. In addition, the IC50 is 501 nM in the assay with HCT116 cells [2] and 1000 nM in the assay with PC-3 cells.
Consider `CCc1cc2ccc(C(C)(C#N)Cc3cccc(Cl)c3F)cc2[nH]c1=O` (centres unmarked) [Compound 130], for which, in the assay with HCT116 cells [1], the minimal effective concentration was 0.1 µM. The IC50 in the assay with HCT116 cells [2] is 158 nM; in the assay on PC-3 cells, 398 nM.
Turning to `CCc1cc2ccc(C(C)(C#N)Cc3cc(Br)cc(Br)c3)cc2[nH]c1=O` (centres unmarked) [Compound 133], the minimal effective concentration with HCT116 cells [1] was 0.1 µM. Moreover, the IC50 was 251 nM in the assay with HCT116 cells [2] and 501 nM in the assay on PC-3 cells.
As for `CCc1cc2ccc(C(C)(C#N)Cc3cccc(S(C)(=O)=O)c3)cc2[nH]c1=O` (centres unmarked) [Compound 129], the minimal effective concentration in the assay on HCT116 cells [1] was 0.316 µM. Besides, the IC50 in the assay with HCT116 cells [2] is 1580 nM; with PC-3 cells it was 5010 nM.
Regarding `CCc1cc2ccc(C(C)(C#N)Cc3cc(F)cc(F)c3)cc2[nH]c1=O` (centres unmarked) [Compound 128], the minimal effective concentration in the assay on HCT116 cells [1] is 0.1 µM. Further, the IC50 is 126 nM in the assay with HCT116 cells [2] and 200 nM in the assay on PC-3 cells.
Regarding `CCc1cc2ccc(C(C)(C#N)Cc3cccc(NS(C)(=O)=O)c3)cc2[nH]c1=O` (centres unmarked) [Compound 14], the minimal effective concentration in the assay with HCT116 cells [1] is 10 µM. In addition, the IC50 with HCT116 cells [2] and in the assay with PC-3 cells was more than 10000 nM throughout.
In the case of `CCc1cc2ccc(C(C)(C#N)Cc3ccc4c(c3)OCCO4)cc2[nH]c1=O` (centres unmarked) [Compound 124], the minimal effective concentration in the assay with HCT116 cells [1] is 0.316 µM. Moreover, the IC50 was 501 nM in the assay on HCT116 cells [2] and 2000 nM in the assay with PC-3 cells.
On the same counts, the results for `CCc1cc2ccc(C(C)(C#N)Cc3c(Cl)cccc3Br)cc2[nH]c1=O` (centres unmarked) [Compound 136] are 0.316 µM, 316 nM and 1000 nM.
On the same counts, the results for `CCc1cc2ccc(C(C)(C#N)Cc3ccccc3C)cc2[nH]c1=O` (centres unmarked) [Compound 105] are 0.1 µM, 251 nM and 1000 nM.
As to `CCc1cc2ccc(C(C#N)(CC)C3CCc4ccc(F)cc43)cc2[nH]c1=O` (centres unmarked) [Compound 391], the figures for the IC50 in the assay on HCT116 cells [2] and with PC-3 cells were 631 nM and 794 nM, respectively.
As to `CCc1cc2ccc(C(C)(C#N)Cc3c(F)c(F)c(F)c(F)c3F)cc2[nH]c1=O` (centres unmarked) [Compound 116], the minimal effective concentration with HCT116 cells [1] was 0.1 µM. In addition, the IC50 in the assay with HCT116 cells [2] was 631 nM; with PC-3 cells it was 794 nM.
For `CCc1cc2ccc(C(C)(C#N)Cc3ccc(OC)cc3)cc2[nH]c1=O` (centres unmarked) [Compound 119] the same measures were 1 µM, 2000 nM and 2510 nM.
`Cc1cc2ccc([C@@](C)(C#N)[C@H]3CCc4cc(C#N)ccc43)cc2[nH]c1=O` [Compound 389]: the IC50 in the assay on HCT116 cells [2] and in the assay with PC-3 cells was 200 nM each time.
As to `CCc1cc2ccc(C(C)(C#N)CC#Cc3cccc(F)c3)cc2[nH]c1=O` (centres unmarked) [Compound 184], the IC50 with HCT116 cells [2] was 3160 nM; in the assay with PC-3 cells, 3980 nM.
For `Cc1cc2ccc([C@@](C)(C#N)[C@@H]3CCc4cc(C#N)ccc43)cc2[nH]c1=O` [Compound 245] the same measures were 6310 nM and 7940 nM.
For `CCc1cc2ccc([C@](C)(C#N)C[C@@H]3CCc4cc(C)ccc4O3)cc2[nH]c1=O` [Compound 251] the same measures were 631 nM and 1000 nM.
On the same counts, the results for `CCc1cc2ccc([C@@](C)(C#N)C[C@@H]3CCc4cc(C)ccc4O3)cc2[nH]c1=O` [Compound 252] are 126 nM and 251 nM.
On to `CCc1cc2ccc(C(C#N)(CC)CCOc3ccc(C#N)cc3)cc2[nH]c1=O` (centres unmarked) [Compound 271], for which the IC50 in the assay on HCT116 cells [2] was 1580 nM; in the assay on PC-3 cells, 2510 nM.
